pIC50: −log10 of the molar value.
molecular target: T1, recombinant human AKR1C3 (Aldo-keto reductase family 1 member C3) (Homo sapiens, UniProt P42330); test: In Vitro Assay 1: AKR1C3-inhibitory activity (Coumberone to Coumberol fluorescence assay); format: biochemical; conditions: recombinant enzyme, Coumberone 0.3 μM, NADPH 10 μM, 15 min pre-incubation, 4-parameter fit; average or median values
T1 construct: GST (cleaved yes); made in house; host or cells: E. coli
T1 sequence (P42330 1-323): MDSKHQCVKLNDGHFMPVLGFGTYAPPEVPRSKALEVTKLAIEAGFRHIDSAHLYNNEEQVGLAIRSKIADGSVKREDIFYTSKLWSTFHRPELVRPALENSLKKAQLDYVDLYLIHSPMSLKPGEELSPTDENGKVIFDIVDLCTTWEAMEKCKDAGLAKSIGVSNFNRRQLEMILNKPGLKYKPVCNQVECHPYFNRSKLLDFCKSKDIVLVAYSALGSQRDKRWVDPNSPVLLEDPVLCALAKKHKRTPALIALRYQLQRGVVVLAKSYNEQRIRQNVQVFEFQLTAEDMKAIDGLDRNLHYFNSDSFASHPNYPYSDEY
Experimental: In Vitro Assay 1: AKR1C3-Inhibitory Activity
The AKR1C3-inhibitory activity of the substances of the present invention was measured in the AKR1C3 assay described in the paragraphs below.
Essentially, the enzyme activity is measured by quantification of the Coumberol from Coumberone (Halim, M., Yee, D. J., and Sames, D., J. AM. CHEM. SOC. 130, 14123-14128 (2008) and Yee, D. J., Balsanek, V., Bauman, D. R., Penning, T. M., and Sames, D., Proc. Natl. Acad. Sci. USA 103, 13304-13309 (2006)). In this test, the increase of the highly fluorescent Coumberol by NADPH- (nicotinamide adenine dinucleotide phosphate)-dependent reduction of the non-fluorescent Coumberone by AKR1C3 can be determined.
The enzyme used was recombinant human AKR1C3 (Aldo-keto reductase family 1 member C3) (GenBank Accession No. NM_003739). This was expressed in E. coli as GST (glutathione S transferase) fusion protein and purified by glutathione Sepharose affinity chromatography. The GST was removed by digestion with thrombin and subsequent size exclusion chromatography (Dufort, I., Rheault, P., Huang, X F., Soucy, P., and Luu-The, V., Endocrinology 140, 568-574 (1999)).
For the assay, 50 nl of a 100-fold concentrated solution of the test substance in DMSO were pipetted into a black low-volume 384-well microtiter plate (Greiner Bio-One, Frickenhausen, Germany), 2.5 μl of a solution of AKR1C3 in assay buffer [50 mM potassium phosphate buffer pH 7, 1 mM DTT, 0.0022% (w/v) Pluronic F-127, 0.01% BSA (w/v) and protease inhibitor cocktail (Complete, EDTA-free Protease Inhibitor Cocktail from Roche)] were added and the mixture was incubated for 15 min to allow pre-binding of the substances to the enzyme prior to the enzyme reaction. The enzyme reaction was then started by addition of 2.5 μl of a solution of NADPH (20 μM→final concentration in 5 μl of assay volume is 10 μM) and Coumberone (0.6 μM→final concentration in 5 μl of assay volume is 0.3 μM) in assay buffer, and the resulting mixture was incubated at […] for the reaction time of typically 90 min. The concentration of the AKR1C3 and the reaction time was adapted to the respective activity of the enzyme preparation and adjusted such that the assay was carried out in the linear range.
Typical AKR1C3 concentrations were in the region of 1 nM. The reaction was stopped by addition of 2.5 μl of a stop solution consisting of the inhibitor EM-1404 [F. Labrie et al. U.S. Pat. No. 6,541,463, 2003] (3 μM→final concentration in 7.5 μl of assay volume is 1 μM). The fluorescence of the Coumberole was then measured at 520 nm (excitation at 380 nm) using a suitable measuring instrument (Pherastar from BMG Labtechnologies). The intensity of the fluorescence was used as a measure of the amount of Coumberole formed and thus of the enzyme activity of AKR1C3. The data were normalized (enzyme reaction without inhibitor—0% inhibition; all other assay components, but no enzyme=100% inhibition).

pIC50 | SMILES
7.59 | O=C(c1c[nH]nn1)N1C[C@@H]2[C@H](C1)[C@@H]1CC[C@H]2N1S(=O)(=O)c1cccc(F)c1 [Example 5, {(3aR,4S,7R,7aS)-8-[(3-fluorophenyl)sulfonyl]octahydro-2H-4,7-epiminoisoindol-2-yl}(1H-1,2,3-triazol-4-yl)methanone]
8.70 | O=C(c1cnn[nH]1)N1[C@@H]2CC[C@H]1[C@H]1CN(S(=O)(=O)c3cccc(F)c3)C[C@H]12 [Example 27, {(3aR,4S,7R,7aS)-2-[(3-fluorophenyl)sulfonyl]octahydro-1H-4,7-epiminoisoindol-8-yl}(1H-1,2,3-triazol-5-yl)methanone]
6.76 | O=C(c1cnn[nH]1)N1C[C@@H]2[C@H](C1)[C@H]1CC[C@@H]2N1S(=O)(=O)c1cccc([N+](=O)[O-])c1 [Example 33, {(3aR,4R,7S,7aS)-8-[(3-nitrophenyl)sulfonyl]octahydro-2H-4,7-epiminoisoindol-2-yl}(1H-1,2,3-triazol-5-yl)methanone]
8.30 | Cc1ccccc1S(=O)(=O)N1[C@@H]2CC[C@H]1[C@H]1CN(C(=O)c3c[nH]nn3)C[C@H]12 [Example 16, {(3aR,4S,7R,7aS)-8-[(2-methylphenyl)sulfonyl]octahydro-2H-4,7-epiminoisoindol-2-yl}(1H-1,2,3-triazol-4-yl)methanone]
6.03 | COc1ccc(OC)c(S(=O)(=O)N2[C@@H]3CC[C@H]2[C@@H]2CN(C(=O)c4cnn[nH]4)C[C@@H]23)c1 [Example 36, {(3aR,4R,7S,7aS)-8-[(2,5-dimethoxyphenyl)sulfonyl]octahydro-2H-4,7-epiminoisoindol-2-yl}(1H-1,2,3-triazol-5-yl)methanone]
7.21 | O=C(c1c[nH]nn1)N1C[C@@H]2[C@H](C1)[C@@H]1CC[C@H]2N1S(=O)(=O)c1cccc(C(F)(F)F)c1 [Example 2, 1H-1,2,3-triazol-4-yl[(3aR,4S,7R,7aS)-8-{[3-(trifluoromethyl)phenyl]sulfonyl}octahydro-2H-4,7-epiminoisoindol-2-yl]methanone]
7.32 | Cc1cc(Cl)cc(S(=O)(=O)N2[C@@H]3CC[C@H]2[C@@H]2CN(C(=O)c4cnn[nH]4)C[C@@H]23)c1 [Example 68, {(3aR,4R,7S,7aS)-8-[(3-chloro-5-methylphenyl)sulfonyl]octahydro-2H-4,7-epiminoisoindol-2-yl}(1H-1,2,3-triazol-5-yl)methanone]
6.38 | O=C(c1cnn[nH]1)N1C[C@@H]2[C@H](C1)[C@H]1CC[C@@H]2N1S(=O)(=O)c1ccc([N+](=O)[O-])cc1 [Example 32, {(3aR,4R,7S,7aS)-8-[(4-nitrophenyl)sulfonyl]octahydro-2H-4,7-epiminoisoindol-2-yl}(1H-1,2,3-triazol-5-yl)methanone]
7.23 | O=C(c1cnn[nH]1)N1C[C@@H]2[C@H](C1)[C@H]1CC[C@@H]2N1S(=O)(=O)c1cccc2nonc12 [Example 46, [(3aR,4R,7S,7aS)-8-(2,1,3-benzoxadiazol-4-ylsulfonyl)octahydro-2H-4,7-epiminoisoindol-2-yl](1H-1,2,3-triazol-5-yl)methanone]
6.71 | O=C(c1cnn[nH]1)N1C[C@@H]2[C@H](C1)[C@H]1CC[C@@H]2N1S(=O)(=O)c1ccc(Br)cc1 [Example 30, ((3aR,4R,7S,7aS)-8-[(4-bromophenyl)sulfonyl]octahydro-2H-4,7-epiminoisoindol-2-yl)(1H-1,2,3-triazol-5-yl)methanone]
7.48 | N#Cc1ccc(Cl)c(S(=O)(=O)N2[C@@H]3CC[C@H]2[C@@H]2CN(C(=O)c4cnn[nH]4)C[C@@H]23)c1 [Example 67, 4-chloro-3-{[(3aR,4R,7S,7aS)-2-(1H-1,2,3-triazol-5-ylcarbonyl)octahydro-1H-4,7-epiminoisoindol-8-yl]sulfonyl}benzonitrile]
7.16 | O=C(c1c[nH]nn1)N1C[C@@H]2[C@H](C1)[C@@H]1CC[C@H]2N1S(=O)(=O)c1cccc(S(F)(F)(F)(F)F)c1 [Example 11, [(3aR,4S,7R,7aS)-8-{[3-(pentafluoro-λ^6-sulfanyl)phenyl]sulfonyl}octahydro-2H-4,7-epiminoisoindol-2-yl](1H-1,2,3-triazol-4-yl)methanone]
6.07 | N#Cc1ccc(S(=O)(=O)N2[C@@H]3CC[C@H]2[C@@H]2CN(C(=O)c4cnn[nH]4)C[C@@H]23)cc1 [Example 43, 4-{[(3aR,4R,7S,7aS)-2-(1H-1,2,3-triazol-5-ylcarbonyl)octahydro-1H-4,7-epiminoisoindol-8-yl]sulfonyl}benzonitrile]
8.15 | O=C(c1c[nH]nn1)N1C[C@@H]2[C@H](C1)[C@@H]1CC[C@H]2N1S(=O)(=O)c1ccccc1Cl [Example 8, {(3aR,4S,7R,7aS)-8-[(2-chorophenyl)sulfonyl]octahydro-2H-4,7-epiminoisoindol-2-yl}(1H-1,2,3-triazol-4-yl)methanone]
6.83 | O=C(c1cnn[nH]1)N1C[C@@H]2[C@H](C1)[C@H]1CC[C@@H]2N1S(=O)(=O)c1ccc(F)c(F)c1F [Example 49, 1H-1,2,3-triazol-5-yl{(3aR,4R,7S,7aS)-8-[(2,3,4-trifluorophenyl)sulfonyl]octahydro-2H-4,7-epiminoisoindol-2-yl}methanone]
7.37 | O=C(c1c[nH]nn1)N1C[C@@H]2[C@H](C1)[C@@H]1CC[C@H]2N1S(=O)(=O)c1c(F)cccc1F [Example 12, {(3aR,4S,7R,7aS)-8-[(2,6-difluorophenyl)sulfonyl]octahydro-2H-4,7-epiminoisoindol-2-yl}(1H-1,2,3-triazol-4-yl)methanone]
6.30 | NC(=O)c1cccc(S(=O)(=O)N2[C@@H]3CC[C@H]2[C@@H]2CN(C(=O)c4cnn[nH]4)C[C@@H]23)c1 [Example 60, 3-{[(3aR,4R,7S,7aS)-2-(1H-1,2,3-triazol-5-ylcarbonyl)octahydro-1H-4,7-epiminoisoindol-8-yl]sulfonyl}benzamide]
6.49 | N#Cc1cccc(S(=O)(=O)N2[C@@H]3CC[C@H]2[C@H]2CN(C(=O)c4cnn[nH]4)C[C@H]23)c1 [Example 26, 3-{[(3aR,4S,7R,7aS)-2-(1H-1,2,3-triazol-5-ylcarbonyl)octahydro-1H-4,7-epiminoisoindol-8-yl]sulfonyl}benzonitrile]
8.70 | Cc1ccc(Cl)cc1S(=O)(=O)N1[C@@H]2CC[C@H]1[C@@H]1CN(C(=O)c3cnn[nH]3)C[C@@H]12 [Example 53, {(3aR,4R,7S,7aS)-8-[(5-chloro-2-methylphenyl)sulfonyl]octahydro-2H-4,7-epiminoisoindol-2-yl}(1H-1,2,3-triazol-5-yl)methanone]
7.57 | Cc1cc(C)c(S(=O)(=O)N2[C@@H]3CC[C@H]2[C@@H]2CN(C(=O)c4cnn[nH]4)C[C@@H]23)c(C)c1 [Example 34, 1H-1,2,3-triazol-5-yl{(3aR,4R,7S,7aS)-8-[(2,4,6-trimethylphenyl)sulfonyl]octahydro-2H-4,7-epiminoisoindol-2-yl}methanone]
6.71 | CCc1ccc(S(=O)(=O)N2[C@@H]3CC[C@H]2[C@@H]2CN(C(=O)c4cnn[nH]4)C[C@@H]23)cc1 [Example 38, {(3aR,4R,7S,7aS)-8-[(4-ethylphenyl)sulfonyl]octahydro-2H-4,7-epiminoisoindol-2-yl}(1H-1,2,3-triazol-5-yl)methanone]
6.13 | Nc1cccc(S(=O)(=O)N2[C@@H]3CC[C@H]2[C@@H]2CN(C(=O)c4cnn[nH]4)C[C@@H]23)c1 [Example 69, {(3aR,4R,7S,7aS)-8-[(3-aminophenyl)sulfonyl]octahydro-2H-4,7-epiminoisoindol-2-yl}(1H-1,2,3-triazol-5-yl)methanone]
